Measurements reported in ChEMBL document CHEMBL1201862, “PubChem BioAssay data set” (2004).
Activity calls are given as the source filed them.

Assays:
Cytochrome P450 3A4 [1] = target: T1, Cytochrome P450 3A4 (Homo sapiens, UniProt P08684); conditions: Potency
Protein Wnt-3a = Protein Wnt-3a (Mus musculus, UniProt P27467); experiment: antagonism of Wnt3a pathway luciferase reporter – Wnt-LIGHT cells, luminescence, selectivity assay for Gli-SUFU antagonist project, dose response (AID 651570); assay type: functional; conditions: read-out: IC50_Mean;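 further: Wnt-LIGHT reporter cells stimulated with conditioned medium from Wnt3a-producing cells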
Protein Wnt-3a, sequence (P27467 whole entry): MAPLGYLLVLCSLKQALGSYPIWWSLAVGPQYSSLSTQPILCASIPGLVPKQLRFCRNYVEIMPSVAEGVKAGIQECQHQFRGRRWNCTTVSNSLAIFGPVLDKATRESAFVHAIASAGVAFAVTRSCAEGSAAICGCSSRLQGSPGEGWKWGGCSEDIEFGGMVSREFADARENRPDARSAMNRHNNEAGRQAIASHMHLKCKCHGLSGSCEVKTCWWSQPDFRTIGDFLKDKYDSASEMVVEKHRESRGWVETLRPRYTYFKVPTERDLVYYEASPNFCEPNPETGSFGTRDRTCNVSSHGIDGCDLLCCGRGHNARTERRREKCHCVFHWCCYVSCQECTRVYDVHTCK

[2] = reduction of Shn3 3'UTR-driven luciferase in osteoblasts – cell-based, Clone20 osteoblasts, firefly luciferase, cherry-picked, dose response (AID 624132); assay type: functional;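 further: firefly luciferase luminescence from reporter carrying the Shn3 3'UTR in osteoblasts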
INS1 = experiment: INS-1E survival protection against cytokine death – cell-based, luminescence, retest, dose response (AID 449756); assay type: functional; conditions: Rattus norvegicus;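 further: cell death triggered by IL-1 beta plus TNF-alpha plus IFN-gamma mixture; protective hits raise ATP signal compared with cytokine alone wells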
[3] = non-specific 3'UTR reporter inhibition in Clone20-Shn3RL – cell-based, Renilla luciferase, cherry-picked, counter-screen for Shn3 inhibitor project, dose response (AID 624133); assay type: functional
[4] = A cytotoxicity screen of small molecule inhibitors of the PhoP region in Salmonella typhi identified in the primary screen. [Related pubchem assays: 1850, 1864, 1985 ]; assay type: functional
[5] = target: T2, Short transient receptor potential channel 4 (Mus musculus, UniProt Q9QUQ5); experiment: calcium entry via TRPC4 opening agents – cell-based, HEK293 TRPC4/mu-opioid, Fluo-4 calcium, dose response (AID 434937); assay type: functional
T2 sequence (Q9QUQ5 whole entry): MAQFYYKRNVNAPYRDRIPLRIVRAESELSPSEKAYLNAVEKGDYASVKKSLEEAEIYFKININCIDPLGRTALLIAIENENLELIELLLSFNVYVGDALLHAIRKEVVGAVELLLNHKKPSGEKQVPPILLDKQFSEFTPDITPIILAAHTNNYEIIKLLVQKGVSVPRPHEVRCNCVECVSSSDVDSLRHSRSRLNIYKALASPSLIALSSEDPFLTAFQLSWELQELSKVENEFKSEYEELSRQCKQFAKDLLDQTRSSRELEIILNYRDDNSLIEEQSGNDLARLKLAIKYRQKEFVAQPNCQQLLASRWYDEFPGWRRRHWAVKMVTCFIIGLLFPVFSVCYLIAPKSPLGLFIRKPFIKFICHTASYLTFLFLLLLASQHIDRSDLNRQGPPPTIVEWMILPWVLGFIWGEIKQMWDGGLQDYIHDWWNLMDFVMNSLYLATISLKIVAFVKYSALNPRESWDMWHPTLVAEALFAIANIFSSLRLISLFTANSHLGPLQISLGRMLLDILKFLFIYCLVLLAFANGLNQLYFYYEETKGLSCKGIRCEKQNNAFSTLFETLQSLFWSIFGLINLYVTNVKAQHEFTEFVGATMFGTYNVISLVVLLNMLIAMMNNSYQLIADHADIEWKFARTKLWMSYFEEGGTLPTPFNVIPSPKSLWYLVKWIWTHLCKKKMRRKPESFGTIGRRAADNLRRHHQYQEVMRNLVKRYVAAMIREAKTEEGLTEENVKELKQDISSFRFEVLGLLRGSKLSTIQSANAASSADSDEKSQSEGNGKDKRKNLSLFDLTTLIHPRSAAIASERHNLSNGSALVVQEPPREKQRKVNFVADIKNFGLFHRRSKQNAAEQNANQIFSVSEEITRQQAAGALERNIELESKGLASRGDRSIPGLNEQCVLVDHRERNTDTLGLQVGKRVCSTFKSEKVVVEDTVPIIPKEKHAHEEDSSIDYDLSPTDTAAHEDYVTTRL

Cytochrome P450 2D6 = Cytochrome P450 2D6 (Homo sapiens, UniProt P10635);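 further: CYP2D6 member of a cytochrome P450 panel assay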
Cytochrome P450 2D6, sequence (P10635 whole entry): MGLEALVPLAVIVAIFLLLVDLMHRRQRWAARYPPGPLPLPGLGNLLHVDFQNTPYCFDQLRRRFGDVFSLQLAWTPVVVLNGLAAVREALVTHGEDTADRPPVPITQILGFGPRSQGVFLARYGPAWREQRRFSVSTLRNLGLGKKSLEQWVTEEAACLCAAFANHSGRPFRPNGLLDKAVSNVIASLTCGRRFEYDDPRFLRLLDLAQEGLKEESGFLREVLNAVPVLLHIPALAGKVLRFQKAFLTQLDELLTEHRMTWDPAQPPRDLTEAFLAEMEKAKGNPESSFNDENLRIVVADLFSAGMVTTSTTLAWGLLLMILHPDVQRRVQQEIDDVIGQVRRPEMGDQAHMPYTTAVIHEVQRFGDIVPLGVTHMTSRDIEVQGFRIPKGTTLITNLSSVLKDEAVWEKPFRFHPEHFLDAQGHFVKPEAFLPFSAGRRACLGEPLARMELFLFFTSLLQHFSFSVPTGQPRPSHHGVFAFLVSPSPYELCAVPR

Cytochrome P450 2C19 = Cytochrome P450 2C19 (Homo sapiens, UniProt P33261); experiment: Cytochrome panel assay with activity outcomes. Panel member name: p450-cyp2c19 Compounds with AC50 equal or less than 10 uM are considered active; assay type: functional
Cytochrome P450 2C19, sequence (P33261 whole entry): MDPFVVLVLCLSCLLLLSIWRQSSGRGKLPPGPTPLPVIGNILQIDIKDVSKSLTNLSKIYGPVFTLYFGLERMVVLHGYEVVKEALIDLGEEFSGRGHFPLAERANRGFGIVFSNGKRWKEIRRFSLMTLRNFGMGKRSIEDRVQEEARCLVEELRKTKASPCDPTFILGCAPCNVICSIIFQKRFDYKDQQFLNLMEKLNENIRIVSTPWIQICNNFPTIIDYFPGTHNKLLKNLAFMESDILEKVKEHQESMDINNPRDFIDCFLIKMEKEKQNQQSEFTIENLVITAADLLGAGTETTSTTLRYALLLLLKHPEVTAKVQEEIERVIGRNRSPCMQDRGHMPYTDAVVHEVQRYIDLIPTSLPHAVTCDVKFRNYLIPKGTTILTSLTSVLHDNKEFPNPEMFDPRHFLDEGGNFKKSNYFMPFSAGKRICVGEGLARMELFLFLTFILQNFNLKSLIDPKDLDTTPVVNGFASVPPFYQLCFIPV

Cytochrome P450 1A2 = target: T3, Cytochrome P450 1A2 (Homo sapiens, UniProt P05177);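 further: PubChem cytochrome P450 panel assay, CYP1A2 panel member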
T3 sequence (P05177 whole entry): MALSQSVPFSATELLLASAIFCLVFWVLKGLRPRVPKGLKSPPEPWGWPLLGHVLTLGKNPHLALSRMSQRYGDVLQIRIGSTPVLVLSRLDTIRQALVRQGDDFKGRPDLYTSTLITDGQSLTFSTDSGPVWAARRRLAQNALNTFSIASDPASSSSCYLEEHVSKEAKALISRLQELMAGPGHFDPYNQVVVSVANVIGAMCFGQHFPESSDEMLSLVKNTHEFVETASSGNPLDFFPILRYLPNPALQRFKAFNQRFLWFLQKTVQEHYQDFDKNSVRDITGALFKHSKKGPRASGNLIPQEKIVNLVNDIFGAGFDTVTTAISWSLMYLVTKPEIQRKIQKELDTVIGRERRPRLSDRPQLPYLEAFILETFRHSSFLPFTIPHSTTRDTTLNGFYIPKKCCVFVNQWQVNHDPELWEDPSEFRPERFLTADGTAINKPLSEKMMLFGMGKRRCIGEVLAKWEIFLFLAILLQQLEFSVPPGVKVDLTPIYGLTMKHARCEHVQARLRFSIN

BJ = experiment: growth inhibition of engineered Ras-driven BJ cells – cell-based, alamar blue fluorescence, cherrypicked samples, dose response (AID 2631); assay type: functional; conditions: Homo sapiens;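 further: confirmatory dose-response assay in RAS-dependent BJ fibroblasts engineered with TERT, LT and ST, with cytotoxicity read by fluorescence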
[6] = viability of HCT116 lacking mutant beta-catenin – cell-based, human colon tumor, dose response (AID 1045); assay type: functional;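 further: HCT116 colon tumor cells with beta catenin knocked out; cells exposed to compound for 60 hours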
[7] = viability of PTEN-deleted HCT116 cells – cell-based, HCT116 PTEN knockout, dose response (AID 1047); assay type: functional;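 further: HCT116 colon tumor cells with PTEN knocked out; cells exposed to compound for 60 hours before readout; potency for loss of cell viability measured by luminescence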
[8] = microbe, parasite or virus in culture; assay type: functional; conditions: Mycobacterium tuberculosis
Cytochrome P450 2C9 [9] = target: T4, Cytochrome P450 2C9 (Homo sapiens, UniProt P11712)
T4 sequence (P11712 whole entry): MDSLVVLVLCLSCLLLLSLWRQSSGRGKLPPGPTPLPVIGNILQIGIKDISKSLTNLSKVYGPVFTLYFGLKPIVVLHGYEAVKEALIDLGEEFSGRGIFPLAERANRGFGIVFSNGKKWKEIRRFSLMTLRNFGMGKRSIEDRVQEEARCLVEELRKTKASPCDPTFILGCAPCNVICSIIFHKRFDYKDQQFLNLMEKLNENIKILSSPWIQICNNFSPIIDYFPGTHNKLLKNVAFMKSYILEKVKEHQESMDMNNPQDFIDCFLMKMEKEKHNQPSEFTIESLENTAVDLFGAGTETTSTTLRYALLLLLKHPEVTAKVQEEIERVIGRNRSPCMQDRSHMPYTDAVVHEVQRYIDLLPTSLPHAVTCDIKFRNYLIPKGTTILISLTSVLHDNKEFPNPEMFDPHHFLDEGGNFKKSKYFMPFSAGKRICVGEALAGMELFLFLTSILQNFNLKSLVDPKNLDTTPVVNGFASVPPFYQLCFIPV

[10] = target: T2, Short transient receptor potential channel 4; experiment: block of DAMGO-driven TRPC4 calcium entry – cell-based, HEK293 TRPC4/mu-opioid, Fluo-4 calcium, dose response (AID 434942); assay type: functional;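 further: potency of inhibitors blocking the TRPC4 calcium response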
Cytochrome P450 2C9 [11] = target: T4, Cytochrome P450 2C9; remark: listed apart in the source
Cytochrome P450 3A4 [12] = target: T1, Cytochrome P450 3A4

T1 sequence (P08684 whole entry): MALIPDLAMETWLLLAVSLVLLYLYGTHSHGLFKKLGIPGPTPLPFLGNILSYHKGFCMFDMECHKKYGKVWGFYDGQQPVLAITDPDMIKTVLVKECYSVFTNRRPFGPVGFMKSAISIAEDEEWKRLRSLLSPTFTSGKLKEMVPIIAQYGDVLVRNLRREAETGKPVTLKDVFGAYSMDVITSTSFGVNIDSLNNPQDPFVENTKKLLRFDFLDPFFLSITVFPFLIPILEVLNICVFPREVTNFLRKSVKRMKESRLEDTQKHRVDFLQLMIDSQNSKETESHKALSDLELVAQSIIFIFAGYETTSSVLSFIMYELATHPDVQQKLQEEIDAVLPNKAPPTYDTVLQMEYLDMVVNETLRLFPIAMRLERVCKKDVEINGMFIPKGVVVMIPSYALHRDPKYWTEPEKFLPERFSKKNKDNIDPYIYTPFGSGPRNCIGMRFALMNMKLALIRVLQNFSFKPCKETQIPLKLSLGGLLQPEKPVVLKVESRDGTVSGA

CC(=O)OC1CC2C(C)(C)C(O)C=C[C@@]2(C)C2CC[C@]3(C)C(=CC(=O)OC3c3ccoc3)[C@]12C (stereo not given in full)
AC50 (Cytochrome P450 3A4 [1]): 15.8 µM (inconclusive)

CC1Cc2cc(S(=O)(=O)N3CCC(C(=O)N4CCN(c5ccccc5F)CC4)CC3)ccc2N1C(=O)C1CC1 (stereo not given)
IC50 (Protein Wnt-3a): 5.83 µM (active) | AC50 [2]: 1.65 µM (active) | AC50 (INS1): 5.34 µM (active) | AC50 [3]: 4.74 µM (active)

CCCCOc1ccc(OCCNC(=O)c2ccco2)cc1
EC50 [4]: > 50 µM (active)

CCN(CC)CCn1c(-c2ccccc2)nc2c(NCCOC)nc(C)nc21
AC50 (Cytochrome P450 3A4 [1]): 12.6 µM (inconclusive)

CC(COc1ccccc1)N1CCC(CO)(CCc2ccccc2)CC1 (stereo not given)
EC50 [5]: 0.267 µM (active)

Cc1cc(C)nc(Nc2n[nH]c(COc3ccc4ccccc4c3)n2)n1
AC50 (Cytochrome P450 2D6): inconclusive | AC50 (Cytochrome P450 2C19; read-out: AC50): 17.8 µM (inconclusive) | AC50 (Cytochrome P450 1A2): 1.12 µM (inconclusive)

CCc1ccc(-c2nn(-c3ccccc3)cc2CSC(=N)N)cc1
EC50 (BJ): > 133 µM (inactive) | EC50 [6]: 11.2 µM (active) | EC50 [7]: 9.61 µM (active) | CC50 [8]: 13.7 µM (active) | AC50 (INS1): 8.15 µM (active)

COCCNc1ncncc1-c1c(C)noc1C
AC50 (Cytochrome P450 2C9 [9]): inconclusive

O=C(C[n+]1ccccc1)c1ccc(-c2ccccc2)cc1
EC50 [4]: > 50 µM (active)

COc1ccc(Cl)cc1NC(=O)CNCC(c1ccccc1)N(C)C (stereo not given)
EC50 [10]: 0.421 µM (active) | EC50 [5]: 1.06 µM (active)

COc1ccccc1CN1CC2(CCN(S(=O)(=O)c3ccccc3)CC2)C1
AC50 (Cytochrome P450 2D6): inconclusive | AC50 (Cytochrome P450 2C19): inconclusive | AC50 (Cytochrome P450 2C9 [9]): inconclusive

CCOC(=O)C(Sc1ncnc2c1sc1nc(N3CCOCC3)c3c(c12)CCCC3)c1ccccc1 (stereo not given)
AC50 (Cytochrome P450 2C19; read-out: AC50): 10 µM (inconclusive) | AC50 (Cytochrome P450 2C9 [11]): 0.316 µM (inconclusive) | AC50 (Cytochrome P450 3A4 [12]): inconclusive

C[C@@H](NCc1cc(Br)cc2[nH]c(=O)c(=O)[nH]c12)P(=O)(O)O
AC50 (Cytochrome P450 2C9 [9]): inconclusive

CN1CCN(c2ncc3nc(-c4ccc(F)cc4)c(=O)n(C4CC4)c3n2)CC1
AC50 (Cytochrome P450 2C19; read-out: AC50): 25.1 µM (inconclusive) | AC50 (Cytochrome P450 3A4 [12]): inconclusive

COc1ccc(-c2nc(NC(=O)c3ccccc3)sc2-c2ccc([N+](=O)[O-])cc2)cc1
AC50 (Cytochrome P450 2D6): inconclusive | AC50 (Cytochrome P450 2C19; read-out: AC50): 1.26 µM (inconclusive) | AC50 (Cytochrome P450 2C9 [11]): 2.82 µM (inconclusive)

O=C(CCCc1ccccc1)NCCc1cnc[nH]1
EC50 [5]: 5.31 µM (active)

CS(=O)(=O)N1CCC2(CCN(C(c3ccccc3)c3ccccc3)CC2)CC1
AC50 (Cytochrome P450 3A4 [12]): inconclusive

C=CCN=C=S [ALLYL ISOTHIOCYANATE]
AC50 (Cytochrome P450 3A4 [1]): 39.8 µM (inconclusive)
